Source: US20120020915A1, “Compounds and Methods for Treating Cancer and Diseases of the Central Nervous System” (QUEENS UNIVERSITY AT KINGSTON, priority 2007, published 2012)
Counter-ions that a name gives are not always drawn. Like-named read-outs stand apart in the source and are kept apart here. Each block holds one compound with its values, some of them ahead of it.

Key:
HO-1 (rat spleen) = target: T1, HO-1 (rat spleen) (Rattus norvegicus, UniProt P06762); experiment: HO enzymatic activity, rat spleen microsomal fraction (CO formation from methemalbumin); assay type: biochemical
T1 construct: Spleen microsomes were used as a source of HO-1; from tissue; host or cells: spleen microsomal fraction of adult male Sprague-Dawley rats
T1 sequence (P06762 1-289): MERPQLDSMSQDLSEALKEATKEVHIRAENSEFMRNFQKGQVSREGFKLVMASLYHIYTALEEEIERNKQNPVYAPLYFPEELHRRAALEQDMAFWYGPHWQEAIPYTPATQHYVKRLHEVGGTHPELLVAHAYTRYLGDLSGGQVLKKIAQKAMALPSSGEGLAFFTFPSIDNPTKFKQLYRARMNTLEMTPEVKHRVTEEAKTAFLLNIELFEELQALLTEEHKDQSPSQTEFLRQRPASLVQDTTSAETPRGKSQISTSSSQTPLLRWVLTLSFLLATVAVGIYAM
Method: (§1) Incubations for HO activity analysis were done under conditions for which the rate of CO formation (pmol CO×min^−1×mg protein^−1) was linear with respect to time and microsomal protein concentration. Briefly, reaction mixtures (150 μL) consisting of 100 mM phosphate buffer (pH 7.4), 50 μM methemalbumin, and 1 mg/mL protein were pre-incubated with the inhibitors at final concentrations ranging from 0.1-100 μM for 10 minutes at 37° C. Reactions were initiated by adding NADPH at a final concentration of 1 mM and incubations were performed for an additional 15 minutes at 37° C.
(§2) Incubations for HO activity analysis were done under conditions for which the rate of CO formation (pmol CO/mg protein/minute) was linear with respect to time and microsomal protein concentration. Briefly, reaction mixtures (150 μL) consisting of 100 mM phosphate buffer (pH 7.4), 50 μM methemalbumin and 1 mg/mL protein were pre-incubated with the vehicle (ethanol or water in which the inhibitors were dissolved), or inhibitors at final concentrations ranging from 0.1-1000 μM for 10 minutes at 37° C. Reactions were initiated by adding β-NADPH at a final concentration of 1 mM and incubations were carried out for an additional 15 minutes at 37° C. Reactions were stopped by instantly freezing the reaction mixture on pulverized dry ice and CO formation was measured by gas chromatography using a TA 3000R Process Gas Analyzer (Trace Analytical/Ametek, Newark, Del., USA).
(§3) The values on the abscissa represent the decimal logarithm of the inhibitor's concentration (in μM), whereas the values of the activity on the ordinate are expressed as a percentage of the control experiments without inhibitor.
(§4) The IC50 values for the replicate experiments were employed to generate the reported standard deviation value.

HO-2 (rat brain) = target: T2, HO-2 (rat brain) (Rattus norvegicus, UniProt P23711); experiment: HO enzymatic activity, rat brain microsomal fraction (CO formation from methemalbumin); assay type: biochemical
T2 construct: brain microsomes were used as a source of HO-2; from tissue; host or cells: brain microsomal fraction of adult male Sprague-Dawley rats
T2 sequence (P23711 1-315): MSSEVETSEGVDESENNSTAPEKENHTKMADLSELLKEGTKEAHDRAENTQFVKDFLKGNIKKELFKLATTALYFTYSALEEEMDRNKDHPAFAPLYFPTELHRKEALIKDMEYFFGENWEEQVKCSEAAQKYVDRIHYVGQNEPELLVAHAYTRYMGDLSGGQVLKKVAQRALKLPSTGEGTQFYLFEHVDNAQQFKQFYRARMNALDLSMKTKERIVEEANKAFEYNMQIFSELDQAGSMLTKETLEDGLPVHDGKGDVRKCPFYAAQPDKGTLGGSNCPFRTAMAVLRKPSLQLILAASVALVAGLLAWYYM
Method: as §1, §2, §3, §4

[1] = IC50 HO-1 (rat spleen/μM), CO formation from methemalbumin, mean ± SD of replicate experiments
[2] = CO formation from methemalbumin, mean ± SD of replicate experiments, read-out: IC50 HO-1 (rat spleen/μM)
[3] = IC50 HO-2 (rat brain)/μM), CO formation from methemalbumin, mean ± SD of replicate experiments
[4] = CO formation from methemalbumin, mean ± SD of replicate experiments, read-out: IC50 HO-2 (rat brain)/μM)
[5] = IC50 HO-1 (rat spleen/μM), average ± SD of replicate experiments
[6] = IC50 HO-2 (rat brain)/μM), average ± SD of replicate experiments
[7] = average ± SD of replicate experiments, read-out: IC50 HO-1 (rat spleen/μM)
[8] = average ± SD of replicate experiments, read-out: IC50 HO-2 (rat brain)/μM)

Structure (SMILES): Cl.Ic1ccc(CCC2(Cn3ccnc3)OCCO2)cc1 [QC-78, 1-((2-(2-(4-Iodophenyl)ethyl)-1,3-dioxolan-2-yl)methyl)-1H-imidazole hydrochloride]
IC50 (HO-1 (rat spleen); [1]): 4 ± 1 µM
melting point: 241 to 243 °C (dec.)

melting point: 110 to 111 °C
Structure (SMILES): Cl.FC(F)(F)c1ccc(CCCCn2ccnc2)cc1

IC50 (HO-1 (rat spleen); [2]): 0.5 ± 0.3 µM
melting point: 121 to 122 °C
Structure (SMILES): Cl.Clc1ccc(CCCCn2ccnc2)cc1 [QC-105, 1-[4-(4-chlorophenyl)butyl]-1H-imidazole hydrochloride]

melting point: 162 to 163 °C
Structure (SMILES): Cl.Clc1ccc(CC[C@@]2(Cn3ccnc3)OC[C@@H](COc3ccc(-c4ccccc4)cc3)O2)cc1 [QC-129]

Structure (SMILES): Cl.O=C(Cn1ccnc1)C12CC3CC(CC(C3)C1)C2 [QC-82, 1-(adamantan-1-yl)-2-imidazol-1-yl-ethanone hydrochloride]
IC50 (HO-1 (rat spleen); [2]): 3 ± 1 µM
IC50 (HO-2 (rat brain); [3]): > 100 µM
melting point: 261 to 262 °C

melting point: 156 to 157 °C
Structure (SMILES): Cl.Clc1ccc(CC[C@@]2(Cn3ccnc3)OC[C@@H](CSc3ccc4ccccc4c3)O2)cc1 [QC-121, (2R,4S)-1-[2-[2-(4-Chlorophenyl)ethyl]-4-(naphthalen-2-ylsulfanylmethyl)-[1,3]dioxolan-2-ylmethyl]-1H-imidazole hydrochloride]

Structure (SMILES): Cl.OC(CCc1ccccc1)Cn1ccnc1 (racemic) [QC-76, (±)-1-(1H-imidazol-1-yl)-4-phenyl-2-butanol hydrochloride]
IC50 (HO-1 (rat spleen); [2]): 6 ± 1 µM
IC50 (HO-2 (rat brain); [3]): 16 ± 8 µM
melting point: 56 to 57 °C

Structure (SMILES): CCC(COC(C)=O)n1ccnc1 (stereo not shown) [QC-36, 1-acetoxy-2-(1H-imidazol-1-yl)-butane]
IC50 (HO-1 (rat spleen); [2]): > 100 µM
IC50 (HO-2 (rat brain); [4]): > 100 µM

Structure (SMILES): CCOC(=O)c1nccn1CC(=O)CCc1ccccc1 [QC-110, 1-(2-Oxo-4-phenyl-butyl)-1H-imidazole-2-carboxylic acid ethyl ester hydrochloride]
IC50 (HO-1 (rat spleen); [1]): > 100 µM
IC50 (HO-2 (rat brain); [3]): > 100 µM

Structure (SMILES): c1ccc(C2(Cn3cncn3)OCCO2)cc1 [QC-254, 1-(2-Phenyl-[1,3]dioxolan-2-ylmethyl-1H-[1,2,4]triazole hydrochloride]
IC50 (HO-1 (rat spleen); [5]): 144 ± 15 µM
IC50 (HO-2 (rat brain); [6]): > 100 µM

IC50 (HO-1 (rat spleen); [7]): > 100 µM
IC50 (HO-2 (rat brain); [8]): > 100 µM
Structure (SMILES): CCOC(=O)Cc1nnn(CC(=O)CCc2ccccc2)n1 [QC-178, [2-(2-Oxo-4-phenyl-butyl)-2H-tetrazol-5-yl]-acetic acid ethyl ester]

Structure (SMILES): O=C(Cn1ccnc1)c1ccc2ccccc2c1 [QC-162, 2-Imidazol-1-yl-1-napthalen-2-yl-ethanone hydrochloride]
IC50 (HO-1 (rat spleen); [7]): 1.9 ± 0.1 µM
IC50 (HO-2 (rat brain); [8]): 12 ± 0.05 µM

IC50 (HO-1 (rat spleen); [2]): 163 ± 10 µM
IC50 (HO-2 (rat brain); [4]): > 100 µM
Structure (SMILES): O=C(CCc1ccccc1)C[n+]1ccncc1 [QC-97, 1-(4-phenyl-2-oxo-butyl)-pyrazin-1-ium bromide]

Structure (SMILES): O=C(Cn1ccnc1)NCc1ccccc1 [QC-63, N-benzyl-2-(1H-imidazol-1-yl)-acetamide hydrochloride]
IC50 (HO-1 (rat spleen); [2]): 12 ± 5 µM
IC50 (HO-2 (rat brain); [3]): > 100 µM

IC50 (HO-1 (rat spleen); [2]): 55 ± 2 µM
IC50 (HO-2 (rat brain); [4]): > 100 µM
Structure (SMILES): COC(=O)c1cncn1CC(=O)CCc1ccccc1 [QC-134, 3-(2-Oxo-4-phenyl-butyl)-3H-imidazole-4-carboxylic acid methyl ester]

IC50 (HO-1 (rat spleen); [2]): > 100 µM
IC50 (HO-2 (rat brain); [4]): > 100 µM
Structure (SMILES): c1cn(CCCCn2ccnc2)cn1 [QC-88, 1,4-bis-(1H-imidazol-1-yl)butane dihydrochloride]

Structure (SMILES): Cc1nccn1CC(=O)CCc1ccc(Br)cc1 [QC-61, 4-(4-bromophenyl)-1-[(2-methyl)-1H-imidazol-1-yl]butan-2-one hydrochloride]
IC50 (HO-1 (rat spleen); [1]): > 100 µM
IC50 (HO-2 (rat brain); [3]): > 100 µM

Structure (SMILES): N#Cc1ncn(CC(=O)CCc2ccccc2)c1C#N [QC-154, 1-(2-Oxo-4-phenylbutyl)-1H-imidazole-4,5-dicarbonitrile hydrochloride]
IC50 (HO-1 (rat spleen); [5]): > 100 µM
IC50 (HO-2 (rat brain); [6]): > 100 µM

IC50 (HO-1 (rat spleen); [2]): > 100 µM
IC50 (HO-2 (rat brain); [4]): > 100 µM
Structure (SMILES): CC(=O)NCCc1c[nH]cn1 [QC-138, N-[2-(1H-Imidazol-4-yl)-ethyl]-acetamide]

Structure (SMILES): N[C@@H](Cc1c[nH]cn1)C(=O)O [QC-68, L-histidine hydrochloride monohydrate, reference compound]
IC50 (HO-1 (rat spleen); [2]): > 100 µM
IC50 (HO-2 (rat brain); [4]): > 100 µM

IC50 (HO-1 (rat spleen); [2]): > 100 µM
IC50 (HO-2 (rat brain); [4]): > 100 µM
Structure (SMILES): CSCC[C@@H](N)C(=O)O [QC-69, D-methionine, reference compound]

melting point: 128 to 129 °C
Structure (SMILES): COc1ccc(OCC2CO[C@@](CCc3ccc(Cl)cc3)(Cn3ccnc3)O2)cc1.Cl (stereo in doubt) [QC-132, (2R,4S)-1-[2-[2-(4-Chlorophenyl)ethyl]-4-(4-methoxyphenoxymethyl)-[1,3]dioxolan-2-ylmethyl]-1H-imidazole hydrochloride]

Structure (SMILES): O=C(Cn1ccnc1)c1ccc(Br)cc1 [QC-161, 1-(4-Bromophenyl)-2-imidazol-1-yl-ethanone hydrochloride]
IC50 (HO-1 (rat spleen); [5]): 3.2 ± 0.8 µM
IC50 (HO-2 (rat brain); [6]): 14 ± 2 µM

IC50 (HO-1 (rat spleen); [2]): > 100 µM
IC50 (HO-2 (rat brain); [4]): > 100 µM
Structure (SMILES): COc1cccc(-c2nnn[nH]2)c1 [QC-28, 5-(3-methoxyphenyl)-1H-tetrazole]

Structure (SMILES): COc1ccc(C(=O)Cn2ccnc2)cc1 [QC-163, 2-Imidazol-1-yl-1-(4-methoxyphenyl)-ethanone hydrochloride]
IC50 (HO-1 (rat spleen); [7]): 32 ± 4 µM
IC50 (HO-2 (rat brain); [6]): 62 ± 3 µM

Structure (SMILES): O=C(Cn1ccnc1)c1ccc(-c2ccccc2)cc1 [QC-166, 1-Biphenyl-4-yl-2-imidazol-1-yl-ethanone hydrochloride]
IC50 (HO-1 (rat spleen); [5]): 2.1 ± 0.7 µM
IC50 (HO-2 (rat brain); [6]): 3 ± 0.7 µM

Structure (SMILES): Clc1ccc(CCC2(Cn3ccnc3)O[C@H]3CCCC[C@H]3O2)cc1 (stereo partly shown) [QC-71, 1-{2-[2-(4-Chlorophenyl)-ethyl]-hexahydrobenzo[1,3]dioxol-2-ylmethyl}-1H-imidazole]
IC50 (HO-1 (rat spleen); [1]): 69 ± 7 µM
IC50 (HO-2 (rat brain); [3]): > 100 µM

IC50 (HO-1 (rat spleen); [2]): > 100 µM
IC50 (HO-2 (rat brain); [4]): > 100 µM
Structure (SMILES): COC(=O)c1ncn(CC(=O)CCc2ccccc2)n1 [QC-135, 1-(2-Oxo-4-phenyl-butyl)-1H-[1,2,4]triazole-3-carboxylic acid methyl ester]

Structure (SMILES): O=C(CCn1ccnc1)c1ccc(Cl)cc1 [QC-85, 1-(4-chlorophenyl)-3-imidazol-1-yl-propan-1-one hydrochloride]
IC50 (HO-1 (rat spleen); [1]): 32 ± 3 µM
IC50 (HO-2 (rat brain); [3]): > 100 µM

IC50 (HO-1 (rat spleen); [2]): > 100 µM
IC50 (HO-2 (rat brain); [4]): > 100 µM
Structure (SMILES): CS(=O)(=O)c1nccn1CC(=O)CCc1ccccc1 [QC-125, 1-(2-Methanesulfonyl-imidazol-1-yl)-4-phenyl-butan-2-one]

Structure (SMILES): N#CSC[C@@H]1CO[C@@](CCc2ccc(Cl)cc2)(Cn2ccnc2)O1 [QC-197, 1-{2-[2-(4-Chloro-phenyl)-ethyl]-4-thiocyanatomethyl-[1,3]dioxolan-2-ylmethyl}-1H-imidazole hydrochloride]
IC50 (HO-1 (rat spleen); [5]): 3 ± 0.9 µM
IC50 (HO-2 (rat brain); [6]): > 100 µM

IC50 (HO-1 (rat spleen); [2]): > 100 µM
IC50 (HO-2 (rat brain); [4]): > 100 µM
Structure (SMILES): O=C(CCc1ccccc1)Cn1cnc([N+](=O)[O-])c1 [QC-127, 1-(4-Nitro-imidazol-1-yl)-4-phenyl-butan-2-one]

Structure (SMILES): Cl.OC(CCc1ccc(I)cc1)Cn1ccnc1 (racemic) [QC-74, (±)-1-(1H-Imidazol-1-yl)-4-(4-iodophenyl)-2-butanol hydrochloride]
IC50 (HO-2 (rat brain); [3]): 2 ± 1 µM
melting point: 196 to 197 °C

Structure (SMILES): O=C(Cn1cncn1)c1ccccc1 [QC-157, 1-Phenyl-2-[1,2,4]triazol-1-yl-ethanone hydrochloride]
IC50 (HO-1 (rat spleen); [5]): 12 ± 0.9 µM
IC50 (HO-2 (rat brain); [6]): > 100 µM

Structure (SMILES): Nc1nc2cc(OCCCCN3CCCCC3)ccc2[nH]1 [QC-146, 5-(4-Piperidin-1-yl-butoxy)-1H-benzoimidazol-2-ylamine dihydrochloride 3/2 hydrate]
IC50 (HO-1 (rat spleen); [7]): > 100 µM
IC50 (HO-2 (rat brain); [8]): > 100 µM

IC50 (HO-1 (rat spleen); [2]): > 100 µM
IC50 (HO-2 (rat brain); [4]): > 100 µM
Structure (SMILES): CCCCn1ccnc1 [QC-122, 1-Butyl-1H-imidazole]
